In patent US6645479B1, “Targeted delivery of active/bioactive and perfuming compositions” (International Flavors & Fragrances Inc., priority 1997, dated 2003):

Test: Vapor pressure of fragrance components
Conditions: not given

| Compound | Vapor Pressure mm/Hg at 25° C. [mm/Hg] |
| --- | --- |
| CC1=CC(C)C(C=O)CC1 (stereo not shown) | 0.3 |
| CC(=O)O[C@@H]1C[C@H]2CC[C@]1(C)C2(C)C (racemic) [isobornyl acetate] | 0.09 |
| CC(=O)C1(C)CC2=C(CCCC2(C)C)CC1C (stereo not shown) [ISO E SUPER ®] | 0.002 |
| CC(C=O)Cc1ccc(C(C)(C)C)cc1 (stereo not shown) [LILIAL ®] | 0.003 |
| CC(=O)c1cc2c(cc1C)C(C)(C)C(C)CC2(C)C (stereo not shown) [TONALID ®] | 0.0001 |
| CC(=O)OC1CCC(C(C)(C)C)CC1 (stereo not shown) [VERTENEX ® HC] | 0.03 |
| C=CCOC(=O)COCCC(C)C [allyl amyl glycolate] | 0.07 |
| CC(=O)OCc1ccccc1 [benzyl acetate] | 0.1 |
| CC12CCC(CC1=O)C2(C)C (stereo not shown) [camphor] | 0.1 |
| CC/C=C\CCOC(C)=O [cis-3-hexenyl acetate] | 2.0 |
| CC/C=C\CCOC(=O)c1ccccc1O [cis-3-hexenyl salicylate] | 0.0008 |
| CC(C)=CCCC(C)CCO (stereo not shown) [citronellol] | 0.009 |
| CC(C=O)Cc1ccc(C(C)C)cc1 (stereo not shown) [cyclamal] | 0.004 |
| C=CC(C)CCCC(C)(C)O (stereo not shown) [dihydromyrcenol] | 0.09 |
| CCCCCCC(C=O)=Cc1ccccc1 [hexyl cinnamic aldehyde] | 0.0003 |
| C=CC(C)(CCC=C(C)C)OC(C)=O (stereo not shown) [linalyl acetate] | 0.07 |
| C=CCc1ccc(OC)cc1 [methyl chavicol] | 0.09 |

More lines, now with the values ahead:

| Vapor Pressure mm/Hg at 25° C. [mm/Hg] | Compound |
| --- | --- |
| 0.02 | CC1(C)[C@H]2CC[C@]1(C)[C@H](O)C2 [l-borneol] |
| 0.05 | C=CC(C)(O)CCC=C(C)C (stereo not shown) [linalool] |
| 0.009 | CCCCCCCCCC(C)C=O (stereo not shown) [methyl nonyl acetaldehyde] |
| 0.1 | CC(=O)OC(C)c1ccccc1 (stereo not shown) [styralyl acetate] |
| 0.02 | CC1=CCC(C(C)(C)O)CC1 (stereo not drawn) [α-terpineol] |
| 0.006 | CC(=O)/C=C/C1=C(C)CCCC1(C)C [β-ionone] |
| 0.02 | OCCc1ccccc1 [β-phenyl ethyl alcohol] |
| 0.002 | peach aldehyde coeur |

Test: IFF permeation test: permeation rate through wax or polymer matrix
Conditions: matrix: carnauba wax
Description: Referring to FIGS. 4A and 4B, fluid 46 is located in jar 44. Jar 44 has sidearm 45. The fluid 46 reaches fluid level 47. Directly in line with fluid level 47 is membrane 41. The diffusion membrane 41 is held in place with flanges 43 and jar lip 42, using bolts 401a and 401b which secures the flange in place. The sidearm 45 is closed using closure 49. The permeability apparatus is shown using reference numeral 40. The IFF permeability test is based on the use of the apparatus of FIGS. 4A and 4B. The weight of membrane 41 is taken, initially, before being placed within the flange 43 and the jar lip 42. Substance 46 for which the permeability is to be measured is placed into jar 44 to fluid level 47. The apparatus containing fluid 46 remains in place for a fixed period of time. At the end of that period of time, bolts 401a and 401b as well as 401c are loosened, the flange 43 removed and membrane 41 is removed and weighed, thereby gathering sufficient data to determine the permeability of the particular substance 46. […] The Y axis measures weight loss and is indicated by reference numeral 54.

| permeation rate through matrix material | Compound |
| --- | --- |
| 4.4 × 10^−4 | C/C=C(\C)C(=O)OCC [ethyl tiglate] |

Same assay, conditions: matrix: polyamide (MACROMELT 6030)

| permeation rate through matrix material | Compound |
| --- | --- |
| 4.2 × 10^−4 | C/C=C(\C)C(=O)OCC [ethyl tiglate] |

Same assay, conditions: matrix: polyethylene wax, molecular weight 500

| permeation rate through matrix material | Compound |
| --- | --- |
| 2.0 × 10^−5 | C/C=C(\C)C(=O)OCC [ethyl tiglate] |
